Test results taken from PMC10449621, “Engineering cellular communication between light-activated synthetic cells and bacteria” (Nature Chemical Biology, 2023).
Several values for one entry are separate records, joined by “and”; a condition that tells them apart may be missing. Equal entries are not always repeated.

How the values were obtained:
Type in all cases: cell-based, E. coli XL10-Gold
[1] = system: BjaRS107R (B0033|ATG) receiver cells; assay: IV-HSL biosynthesis by BjaI-expressing synthetic cells (GUVs), quantified with receiver cells; settings: 10 nM IV-HSL control, Dilution -, sheet 4d
[2] = system: BjaRWT (B0033|ATG) receiver cells; assay: BjaR receiver cell AHSL dose-response (gfp reporter, plate reader)
Description: (§1) These findings are consistent with the predicted translation initiation rates of the respective sequences—translation from the BBa_B0033 RBS provides 1% of protein yield compared to the BBa_B0034 RBS, just as an CTG start codon provides 1% of the protein yield compared to an ATG start codon[30],[31]. This also offers support as to why the ON-state gfp expression level increased in variants with a tighter OFF-state; more cellular resources were available for GFP synthesis when comparatively fewer were allocated to BjaR synthesis. To elucidate the impact of the S107R variant on gene circuit performance, we introduced the S107R variant alone back into the bjaRWT gene, in the context of the BBa_B0033 RBS background.
(§2) In addition to quantifying how these BjaR receiver cells responded to their branched, cognate ligand, we also sought to determine whether the BjaR receiver cells could be activated by structurally dissimilar AHSLs involved in the LuxI/R, EsaI/R, LasI/R and RhlI/R QS systems previously used in synthetic cell communication[5],[7],[8]. To this end, we measured the fluorescence of BjaR receiver cells grown in the presence of their activators, 3OC6-HSL, 3OC12-HSL and C4-HSL, respectively (Supplementary Fig. 13a).
(§3) The BjaR reporter plasmids were retransformed into E. coli XL10-Gold cells for each experiment. A single colony was used to inoculate 5 ml LB + Amp media and incubated at 37 °C, 225 r.p.m. overnight. Overnight cultures were diluted 1/250 or 1/500 in 5 ml M9 minimal media + Amp and incubated at 37 °C, 225 r.p.m. for 3 h and 45 min (until OD600 = ~0.075). Cultures were diluted down to OD600 = 0.05 with M9 minimal media + Amp, and 200 µl was added to wells of a 96-well plate containing 1 µl IV-HSL dissolved in DMSO or 1 µl BjaI CFPS reactions (IV-HSL concentrations obtained from serial dilution from 63.2 µM to 632 pM; final DMSO concentration = 0.5%). Cells were incubated at 37 °C, 800 r.p.m., in a thermomixer with a heated lid for 4 h. Fluorescence and OD600 were measured in a Tecan M1000 infinite plate reader (excitation, 488 nm; emission, 510 nm; bandwidth, 5 nm; gain, 101 and z position, 21,311 µm). The dose–response curves were fitted to the function indicated by Eq. (1), where a = maximal fluorescence output, b = basal fluorescence output, X = concentration of AHSL, GFP = fluorescence at the given condition, EC50 = AHSL at 50% maximal fluorescence output and h = hill coefficient. EC50 and h were derived using the nonlinear regression model based on Eq. (1), in MATLAB. A summary of the dose–response data is available in Supplementary Table 1.1 GFP=b+a−b/1+10^logEC50−X×h

[3] = system: BjaRS107R (B0033|ATG) receiver cells; assay: as above; settings: for EC50: IV-HSL-activated gfp expression; for Mean normalised fluorescence / Normalised fluorescence / GFP: sheet 3d; for Normalised fluorescence / GFP: Expt1-3; for GFP: raw fluorescence ex 488/em 510 nm
Description: as §1, §2, §3

CC(C)CC(=O)N[C@H]1CCOC1=O [IV-HSL, N-isovaleryl-L-homoserine lactone] was tested, and the Mean normalised fluorescence [1] was 190979, the Normalised fluorescence ([1]; Expt1-3) was 175106 and 224036 and 173796 and the GFP ([1]; raw fluorescence ex 488/em 510 nm, Expt1-3) was 33963 and 48451 and 56546. For the same compound, the EC50 ([2]; Escherichia coli, IV-HSL-activated gfp expression) was 3.93 ± 0.38 nM, the hill coefficient ([2]; IV-HSL dose-response curve) was 1.38 and the GFP ([2]; Log([ASHL]) -6.5) was 47248 and 37500. The Mean normalised fluorescence ([2]; Log([ASHL]) -6.5) was 200159, the Normalised fluorescence ([2]; Log([ASHL]) -6.5) was 212521 and 200332 and 187623 and the Mean normalised fluorescence ([2]; Log([ASHL]) -6.5, sheet 3e) was 184419. For the same compound, the Mean normalised fluorescence ([2]; Log([ASHL]) -6.5, sheet 3d) was 198983, the Normalised fluorescence ([2]; Log([ASHL]) -6.5, sheet 3d, Expt1-3) was 211719 and 182929 and the GFP ([2]; Log([ASHL]) -7) was 45353 and 37555. For the same compound, the Mean normalised fluorescence ([2]; Log([ASHL]) -7) was 189629, the Normalised fluorescence ([2]; Log([ASHL]) -7) was 198623 and 195600 and 174664 and the Mean normalised fluorescence ([2]; Log([ASHL]) -7, sheet 3e) was 176709. For the same compound, the Mean normalised fluorescence ([2]; Log([ASHL]) -7, sheet 3d) was 188606, the Normalised fluorescence ([2]; Log([ASHL]) -7, sheet 3d, Expt1-3) was 197885 and 170457 and the GFP ([2]; Log([ASHL]) -7.5) was 45933 and 37587 and 40718. For the same compound, the Mean normalised fluorescence ([2]; Log([ASHL]) -7.5) was 182276, the Normalised fluorescence ([2]; Log([ASHL]) -7.5) was 179523 and 192948 and 174359 and the Mean normalised fluorescence ([2]; Log([ASHL]) -7.5, sheet 3e) was 170191. For the same compound, the Mean normalised fluorescence ([2]; Log([ASHL]) -7.5, sheet 3d) was 181297, the Normalised fluorescence ([2]; Log([ASHL]) -7.5, sheet 3d, Expt1-3) was 178915 and 170205 and 194772 and the GFP ([2]; Log([ASHL]) -8) was 37611 and 40673. For the same compound, the Mean normalised fluorescence ([2]; Log([ASHL]) -8) was 167362, the Normalised fluorescence ([2]; Log([ASHL]) -8) was 183805 and 164832 and 153451 and the Mean normalised fluorescence ([2]; Log([ASHL]) -8, sheet 3e) was 154256. For the same compound, the Mean normalised fluorescence ([2]; Log([ASHL]) -8, sheet 3d) was 166513, the Normalised fluorescence ([2]; Log([ASHL]) -8, sheet 3d, Expt1-3) was 161111 and 185459 and the GFP ([2]; Log([ASHL]) -8.5) was 37118 and 36825. For the same compound, the Mean normalised fluorescence ([2]; Log([ASHL]) -8.5) was 127411, the Normalised fluorescence ([2]; Log([ASHL]) -8.5) was 156949 and 139152 and 86132.6 and the Mean normalised fluorescence ([2]; Log([ASHL]) -8.5, sheet 3e) was 106537. For the same compound, the Mean normalised fluorescence ([2]; Log([ASHL]) -8.5, sheet 3d) was 126734, the Normalised fluorescence ([2]; Log([ASHL]) -8.5, sheet 3d, Expt1-3) was 136219 and 158173 and the Mean normalised fluorescence ([2]; Log([ASHL]) -9) was 62693.3. It also gave a Mean normalised fluorescence ([2]; Log([ASHL]) -9, sheet 3e) of 40066, a Mean normalised fluorescence ([2]; Log([ASHL]) -9, sheet 3d) of 62287.6 and a Mean normalised fluorescence ([2]; Log([ASHL]) -9.5) of 17191.4. It also gave a Mean normalised fluorescence ([2]; Log([ASHL]) -9.5, sheet 3e) of 9895.56, a Mean normalised fluorescence ([2]; Log([ASHL]) -9.5, sheet 3d) of 17095.5 and a Mean normalised fluorescence ([2]; Log([ASHL]) -10) of 3897.48. For the same compound, the Mean normalised fluorescence ([2]; Log([ASHL]) -10, sheet 3e) was 2635.87, the Mean normalised fluorescence ([2]; Log([ASHL]) -10, sheet 3d) was 3848.29 and the GFP ([2]; Log([ASHL]) -10.5) was 559 and 459. The Mean normalised fluorescence ([2]; Log([ASHL]) -10.5) was 1658.33, the Normalised fluorescence ([2]; Log([ASHL]) -10.5) was 2009.19 and 1558.44 and 1407.36 and the Mean normalised fluorescence ([2]; Log([ASHL]) -10.5, sheet 3e) was 1317.17. For the same compound, the Mean normalised fluorescence ([2]; Log([ASHL]) -10.5, sheet 3d) was 1623.48, the Normalised fluorescence ([2]; Log([ASHL]) -10.5, sheet 3d, Expt1-3) was 1531.14 and 2041.25 and the GFP ([2]; Log([ASHL]) -11) was 433 and 333 and 432. The Mean normalised fluorescence ([2]; Log([ASHL]) -11) was 1322.92, the Normalised fluorescence ([2]; Log([ASHL]) -11) was 1515.8 and 1009.39 and 1443.57 and the Mean normalised fluorescence ([2]; Log([ASHL]) -11, sheet 3e) was 1095.36. For the same compound, the Mean normalised fluorescence ([2]; Log([ASHL]) -11, sheet 3d) was 1289.12, the Normalised fluorescence ([2]; Log([ASHL]) -11, sheet 3d, Expt1-3) was 995.025 and 1544.75 and 1327.6 and the GFP ([2]; Log([ASHL]) -11.5) was 418 and 424 and 326. The Mean normalised fluorescence ([2]; Log([ASHL]) -11.5) was 1299.42, the Normalised fluorescence ([2]; Log([ASHL]) -11.5) was 1462.99 and 1426.41 and 1008.84 and the Mean normalised fluorescence ([2]; Log([ASHL]) -11.5, sheet 3e) was 1097.76. The Mean normalised fluorescence ([2]; Log([ASHL]) -11.5, sheet 3d) was 1265.1, the Normalised fluorescence ([2]; Log([ASHL]) -11.5, sheet 3d, Expt1-3) was 994.106 and 1309.43 and 1491.76 and the EC50 ([3]; Escherichia coli) was 0.63 ± 0.1 nM. For the same compound, the EC50 [3] was 0.6 nM, the Mean normalised fluorescence ([3]; Log([ASHL]) -6.5) was 211248 and the Normalised fluorescence ([3]; Log([ASHL]) -6.5) was 231337 and 193994 and 208414. The GFP ([3]; Log([ASHL]) -6.5) was 43152 and 44129 and 37797, the Mean normalised fluorescence ([3]; Log([ASHL]) -7) was 191564 and the Normalised fluorescence ([3]; Log([ASHL]) -7) was 219307 and 167549 and 187835. The GFP ([3]; Log([ASHL]) -7) was 41241 and 42932 and 36852, the Mean normalised fluorescence ([3]; Log([ASHL]) -7.5) was 185367 and the Normalised fluorescence ([3]; Log([ASHL]) -7.5) was 205336 and 163229 and 187535. For the same compound, the GFP ([3]; Log([ASHL]) -7.5) was 40980 and 43296 and 37356, the Mean normalised fluorescence ([3]; Log([ASHL]) -8) was 184023 and the Normalised fluorescence ([3]; Log([ASHL]) -8) was 162110 and 183388 and 206570. The GFP ([3]; Log([ASHL]) -8) was 43713 and 37962 and 41577, the Mean normalised fluorescence ([3]; Log([ASHL]) -8.5) was 162300 and the Normalised fluorescence ([3]; Log([ASHL]) -8.5) was 147294 and 166971 and 172634. For the same compound, the GFP ([3]; Log([ASHL]) -8.5) was 45027 and 40097 and 44703, the Mean normalised fluorescence ([3]; Log([ASHL]) -9) was 128394 and the Normalised fluorescence ([3]; Log([ASHL]) -9) was 124444 and 123486 and 137251. For the same compound, the GFP ([3]; Log([ASHL]) -9) was 38352 and 35601 and 39674, the Mean normalised fluorescence ([3]; Log([ASHL]) -9.5) was 61565.3 and the Normalised fluorescence ([3]; Log([ASHL]) -9.5) was 61061.7 and 58710.4 and 64923.7. For the same compound, the GFP ([3]; Log([ASHL]) -9.5) was 18880 and 16008 and 17944, the Mean normalised fluorescence ([3]; Log([ASHL]) -10) was 14778.4 and the Normalised fluorescence ([3]; Log([ASHL]) -10) was 13513.8 and 15594 and 15227.4. The GFP ([3]; Log([ASHL]) -10) was 4242 and 4261 and 4330, the Mean normalised fluorescence ([3]; Log([ASHL]) -10.5) was 3859.05 and the Normalised fluorescence ([3]; Log([ASHL]) -10.5) was 3719.9 and 3832.44 and 4024.82. For the same compound, the GFP ([3]; Log([ASHL]) -10.5) was 1247 and 1149 and 1212, the Mean normalised fluorescence ([3]; Log([ASHL]) -11) was 2518.58 and the Normalised fluorescence ([3]; Log([ASHL]) -11) was 2198.08 and 2463.87 and 2893.8. The GFP ([3]; Log([ASHL]) -11) was 781 and 756 and 889, the Mean normalised fluorescence ([3]; Log([ASHL]) -11.5) was 1640.38 and the Normalised fluorescence ([3]; Log([ASHL]) -11.5) was 1511.18 and 1789.62 and 1620.34. For the same compound, the GFP ([3]; Log([ASHL]) -11.5) was 546 and 584 and 517, the “sensitivity to IV-HSL relative to BjaRWT (B0033|ATG)” value ([3]; more sensitive than BjaRWT (B0033|ATG)) was over 6 × and the “fold activation of gene expression (activation range)” value ([3]; with vs without IV-HSL) was 135 fold.
